These results are taken from patent publication US20230000842A1, “METHODS OF TREATING CARTILAGE DISORDERS THROUGH INHIBITION OF CLK AND DYRK” (SAMUMED, LLC, priority 2019, published 2023).

Assay [1] relates to Wnt pathway activity (SW480 colon carcinoma cells stably expressing the Sp5-Luc reporter). The experiment in a line: Wnt pathway activity screening assay (Sp5-Luc reporter gene assay). Conditions: Homo sapiens, SW480, Table 4; SW480 cells stably expressing Sp5-Luc reporter, 10-point dose-response from 10 μM, 36 to 48 hours. A general note: A reporter such as luciferase makes a cellular process visible.
Protocol: The screening assay for Wnt pathway activity is described as follows.
SW480 colon carcinoma cells were transduced with a lentiviral vector expressing luciferase with a human Sp5 promoter consisting of a sequence of eight TCF/LEF binding sites. […] These stably transduced SW480 cells were expanded in cell culture and used for all further screening activities. Each compound was dissolved in DMSO as a 10 mM stock and used to prepare compound source plates. Serial dilution (1:3, 10-point dose-response curves starting from 10 μM) and compound transfer was performed using the ECHO 550 (Labcyte, Sunnyvale, Calif.) into 384-well white solid bottom assay plates (Greiner Bio-One) with appropriate DMSO backfill for a final DMSO concentration of 0.1%. […] Following incubation, 15 μl of BriteLite Plus luminescence reagent (Perkin Elmer) was added to each well of the 384-well assay plates. The plates were placed on an orbital shaker for 2 min and then luminescence was quantified using the Envision (Perkin Elmer) plate reader.

Assay [2] deals with CLK2 kinase (Homo sapiens, UniProt P49760). The experiment in a line: CLK2 kinase activity assay (Z-lyte FRET).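 Further: FRET read-out as coumarin to fluorescein emission ratio, unphosphorylated peptide as 0% and phosphorylated peptide as 100% controls, duplicate reactions, non-linear regression fit of dose-response curves.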 The settings on record: Z-lyte Ser/Thr 6 peptide, 60 μM ATP, 1 h at room temperature. Format: biochemical.
Chain of CLK2 kinase (P49760 whole entry): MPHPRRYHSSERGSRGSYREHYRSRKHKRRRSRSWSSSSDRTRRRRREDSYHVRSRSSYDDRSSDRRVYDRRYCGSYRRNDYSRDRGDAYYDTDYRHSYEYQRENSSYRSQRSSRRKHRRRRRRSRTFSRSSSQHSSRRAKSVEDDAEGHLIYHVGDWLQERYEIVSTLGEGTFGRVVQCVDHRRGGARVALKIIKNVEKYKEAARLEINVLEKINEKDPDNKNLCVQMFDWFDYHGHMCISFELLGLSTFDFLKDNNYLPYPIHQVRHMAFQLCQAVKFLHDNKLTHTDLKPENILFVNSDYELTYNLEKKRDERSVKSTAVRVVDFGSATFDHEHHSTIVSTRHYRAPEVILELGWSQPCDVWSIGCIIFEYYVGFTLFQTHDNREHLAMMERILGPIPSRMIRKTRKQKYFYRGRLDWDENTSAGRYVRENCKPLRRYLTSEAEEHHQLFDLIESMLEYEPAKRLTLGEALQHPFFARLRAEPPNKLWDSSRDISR
Assay [3] concerns the target CLK3 kinase (Homo sapiens, UniProt P49761). In words: CLK3 kinase activity assay (Z-lyte FRET).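 Further: kinase activity read as coumarin/fluorescein emission ratio by FRET, unphosphorylated peptide as 0% and phosphorylated peptide as 100% control, values from non-linear regression of dose-response curves.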 Format: biochemical. The settings on record: Z-lyte Ser/Thr 18 peptide, 156 μM ATP, 1 h at room temperature.
Assay [4] has as its system primary human mesenchymal stem cells (hMSCs). In words: Chondrogenesis screening using primary human mesenchymal stem cells. Format: cell-based. The settings on record: Homo sapiens, Mesenchymal stem cells, hMSC chondrogenesis; for EC50: concentration required to induce 50% levels of chondrogenesis with TGF-β3 as positive control, read-out: Conc (nM) of 50% TGF-β3 activity; for Emax: maximum activity relative to TGF-β3 (10 ng/mL) positive control, read-out: Max. Activity as % TGF-β3 activity. The method, boiled down: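 Primary hMSCs at passage 3–6 were treated across compound concentrations, with TGF-β3 as positive control. Chondrogenic nodule area per well was normalized to 3 DMSO wells on the same plate (fold over DMSO, 2–3 replicates). EC50, maximum activity and the dose reaching it were derived.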

Chain of CLK3 kinase (P49761 whole entry): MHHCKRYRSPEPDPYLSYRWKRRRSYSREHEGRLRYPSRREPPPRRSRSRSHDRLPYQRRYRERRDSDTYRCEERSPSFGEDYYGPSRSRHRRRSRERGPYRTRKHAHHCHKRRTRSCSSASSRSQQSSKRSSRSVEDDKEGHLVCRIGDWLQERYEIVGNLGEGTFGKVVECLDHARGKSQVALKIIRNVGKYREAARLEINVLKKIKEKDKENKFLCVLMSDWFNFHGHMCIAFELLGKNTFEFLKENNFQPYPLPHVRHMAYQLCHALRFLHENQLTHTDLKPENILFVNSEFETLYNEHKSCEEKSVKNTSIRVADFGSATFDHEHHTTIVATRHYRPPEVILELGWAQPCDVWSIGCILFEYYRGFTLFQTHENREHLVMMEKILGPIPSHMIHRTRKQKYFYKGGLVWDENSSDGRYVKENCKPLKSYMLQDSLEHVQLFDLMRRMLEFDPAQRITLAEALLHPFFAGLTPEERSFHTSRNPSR

Take `O=C(Nc1cncc(-c2cc3c(-c4cc5cnccc5[nH]4)n[nH]c3cn2)c1)C1CCCCC1` [compound 433]: the EC50 came out at 1620 nM in assay [1], 3 nM in assay [2], 62 nM in assay [3] and 30 nM in assay [4]. In assay [4], the Emax was 59.4%.
As to `CC(C)(C)C(=O)Nc1cncc(-c2cc3c(-c4cc5c(-c6ccncc6)cncc5[nH]4)n[nH]c3cn2)c1` [compound 392], the EC50 in assay [1] was above 10000 nM; in assay [2], 9 nM; in assay [3], 92 nM. The Emax in assay [4] was determined as 30.4%.
As for `CC(C)Oc1ccc(NC(=O)c2n[nH]c3ccc(-c4cncc(CN5CCCCC5)c4)cc23)cn1` [compound 82], the EC50 came out at 41 nM in assay [1], 13 nM in assay [2], 616 nM in assay [3] and 10 nM in assay [4]. In addition, in assay [4], the Emax was found to be 51.9%.
On to `Nc1cncc(-c2ccc3[nH]nc(-c4cc5c(N6CCCCC6)ccnc5[nH]4)c3c2)c1` [compound 455], for which the EC50 in assay [1] was determined as 604 nM; in assay [2], 5 nM; in assay [3] it was 110 nM. Moreover, in assay [4], the Emax worked out at 130%.
`CC(C)(C)CC(=O)Nc1cncc(-c2cc3c(-c4cc5c(-c6ccccc6F)nccc5[nH]4)n[nH]c3cn2)c1` [compound 327]: the EC50 in assay [1] came out at 1030 nM; in assay [2], 10 nM; in assay [3], 414 nM; in assay [4], 30 nM. Besides, the Emax in assay [4] came to 54.3%.
With `c1cc2[nH]c(-c3n[nH]c4ccc(-c5cncc(CN6CCCCC6)c5)cc34)cc2c(N2CCCCC2)n1` [compound 469], the EC50 in assay [1] was 4210 nM; in assay [2], 6 nM; in assay [3] it was 470 nM. Besides, in assay [4], the Emax came out at 48.1%.
`Nc1cncc(-c2ccc3[nH]nc(-c4nc5c(-c6ccccc6F)nccc5[nH]4)c3n2)c1` [compound 169]: the EC50 was above 10000 nM in assay [1], 1 nM in assay [2], 50 nM in assay [3] and 10 nM in assay [4]. Also, the Emax in assay [4] is 108%.
For the molecule `CC(C)C(=O)Nc1cncc(-c2cc3c(-c4cc5c(N6CCN(C)CC6)cccc5[nH]4)n[nH]c3cn2)c1` [compound 474], the EC50 in assay [1] was determined as 700 nM; in assay [2] it was 17 nM; in assay [3], 2040 nM. Besides, in assay [4], the Emax is 36.4%.
In the case of `CCC(=O)Nc1cncc(-c2cc3c(-c4cc5c(N6CCN(C)CC6)nccc5[nH]4)n[nH]c3cn2)c1` [compound 473], the EC50 in assay [1] is above 10000 nM; in assay [2], 3 nM; in assay [3], 285 nM; in assay [4] it was 30 nM. In addition, in assay [4], the Emax worked out at 70%.
In the same order, the values of `Cn1cc(-c2cnc3[nH]nc(-c4nc5c(-c6cccc(F)c6)nccc5[nH]4)c3c2)cn1` [compound 155] are 11.1 nM, 14 nM, 138 nM, 30 nM and 74.9%.
In the same order, the values of `CN1CCN(c2nccc3[nH]c(-c4n[nH]c5ccc(-c6cncc(CN7CCCCC7)c6)nc45)cc23)CC1` [compound 496] are 4160 nM, 6 nM, 524 nM, 10 nM and 70.8%.
In the same order, the values of `CC(C)CC(=O)Nc1cncc(-c2ccc3[nH]nc(-c4nc5c(-c6cc(F)cc(CNS(C)(=O)=O)c6)cncc5[nH]4)c3c2)c1` [compound 292] are 5 nM, 9 nM, 60 nM, 100 nM and 118%.
On to `c1cncc(-c2ccc3[nH]nc(-c4nc5c(-c6cccnc6)nccc5[nH]4)c3n2)c1` [compound 183], for which the EC50 was above 10000 nM in assay [1], 1 nM in assay [2], 105 nM in assay [3] and 100 nM in assay [4]. Moreover, the Emax in assay [4] came to 70%.
In the same order, the values of `CN1CCN(c2ccnc3[nH]c(-c4n[nH]c5ccc(-c6cncc(NC(=O)c7ccccc7)c6)nc45)cc23)CC1` [compound 488] are 6100 nM, 3 nM, 2530 nM, 10 nM and 61.8%.
In the same order, the values of `CN(C)CCNc1cc(F)cc(-c2cccc3[nH]c(-c4n[nH]c5ccc(-c6cncnc6)nc45)cc23)c1` [compound 516] are 420 nM, 5 nM, 63 nM, 10 nM and 181%.
As for `Nc1cncc(-c2cc3c(-c4cc5c(-c6ccccc6F)cncc5[nH]4)n[nH]c3cn2)c1` [compound 324], the EC50 in assay [1] turned out to be 1630 nM; in assay [2] it was 6 nM; in assay [3] it was 205 nM. For the same molecule, the Emax in assay [4] was found to be 15.5%.
On to `O=C(Nc1cncc(-c2cnc3[nH]nc(-c4cc5c(N6CCCCC6)nccc5[nH]4)c3c2)c1)C1CC1` [compound 460], for which the EC50 stood at 3850 nM in assay [1], 8 nM in assay [2] and 231 nM in assay [3]. In assay [4], the Emax was 42.5%.
As for `CN1CCN(c2cncc3[nH]c(-c4n[nH]c5ccc(-c6cncc(N)c6)nc45)nc23)CC1` [compound 215], the EC50 was above 10000 nM in assay [1], 5 nM in assay [2], 500 nM in assay [3] and 30 nM in assay [4]. Further, the Emax in assay [4] was determined as 64.6%.
In the same order, the values of `c1cncc(-c2cc3c(-c4cc5c(-c6cccnc6)cncc5[nH]4)n[nH]c3cn2)c1` [compound 343] are 1340 nM, 3 nM, 468 nM, 100 nM and 76.4%.
In the same order, the values of `O=C(Nc1cncc(-c2ccc3[nH]nc(-c4nc5c(-c6ccc(Cl)s6)cncc5[nH]4)c3n2)c1)C1CCC1` [compound 268] are 800 nM, 12 nM, 145 nM, 30 nM and 67.9%.
In the same order, the values of `COc1cncc(-c2ccc3[nH]nc(-c4nc5c(-c6cccc(F)c6)nccc5[nH]4)c3n2)c1` [compound 148] are 120 nM, 4 nM, 124 nM, 20.6 nM and 60.4%.
Take `O=C(Nc1cncc(-c2ccc3[nH]nc(-c4nc5c(N6CCCCC6)cncc5[nH]4)c3c2)c1)C1CCC1` [compound 210]: the EC50 in assay [1] came out at 39 nM; in assay [2] it was 7 nM; in assay [3], 54 nM; in assay [4], 30 nM. Moreover, the Emax in assay [4] turned out to be 106%.
As to `CC(C)Nc1cncc(-c2ccc3[nH]nc(-c4nc5c(-c6ccoc6)ccnc5[nH]4)c3n2)c1` [compound 240], the EC50 in assay [1] is 298 nM; in assay [2], 2 nM; in assay [3], 113 nM; in assay [4] it was 100 nM. Further, the Emax in assay [4] was found to be 64.2%.
In the same order, the values of `CN(C)Cc1cncc(-c2cc3c(-c4cc5c(-c6cccc(F)c6)nccc5[nH]4)n[nH]c3cn2)c1` [compound 311] are 1850 nM, 3 nM, 218 nM, 30 nM and 60%.
With `c1cc2[nH]c(-c3n[nH]c4ncc(-c5cncc(CN6CCCCC6)c5)cc34)cc2cn1` [compound 451], the EC50 was 1540 nM in assay [1], 5 nM in assay [2] and 53 nM in assay [3]. In addition, the Emax in assay [4] was determined as 39.7%.
In the case of `CCC(=O)Nc1cncc(-c2ccc3[nH]nc(-c4nc5c(-c6ccsc6)cncc5[nH]4)c3c2)c1` [compound 244], the EC50 stood at 2 nM in assay [1], 16 nM in assay [2], 64 nM in assay [3] and 30 nM in assay [4]. In addition, the Emax in assay [4] is 203%.
In the same order, the values of `CN(C)Cc1cncc(-c2cc3c(-c4nc5c(-c6cccc(F)c6)cccc5[nH]4)n[nH]c3cn2)c1` [compound 135] are 82.2 nM, 4 nM, 41 nM, 100 nM and 311%.
In the case of `Cn1cc(-c2ccc3[nH]nc(-c4cc5c(-c6cccnc6)cncc5[nH]4)c3c2)cn1` [compound 375], the EC50 is 250 nM in assay [1], 6 nM in assay [2] and 100 nM in assay [3]. Moreover, the Emax in assay [4] was found to be 65.2%.
Turning to `O=C(Nc1cnccc1NC(=O)C1CC1)c1n[nH]c2ccc(-c3cncc(CN4CCCCC4)c3)cc12` [compound 86], the EC50 worked out at 120 nM in assay [1], 3 nM in assay [2], 1270 nM in assay [3] and 30 nM in assay [4]. The Emax in assay [4] is 53.7%.
In the same order, the values of `CC(C)(C)CC(=O)Nc1cncc(-c2ccc3[nH]nc(-c4nc5ccncc5[nH]4)c3n2)c1` [compound 203] are above 10000 nM, 11 nM, 558 nM, 10 nM and 54.1%.
In the same order, the values of `Nc1cncc(-c2cc3c(-c4cc5c(-c6ccccc6F)nccc5[nH]4)n[nH]c3cn2)c1` [compound 323] are 224 nM, 2 nM, 59 nM, 10 nM and 117%.
